This note sets out measurements from PMC6707612, “Cyclic-di-GMP binds to histidine kinase RavS to control RavS-RavR phosphotransfer and regulates the bacterial lifestyle transition between virulence and swimming” (PLoS Pathogens, 2019).

Common to all, as to experiment: microscale thermophoresis (MST) binding
Background: MST reads how a fluorescent partner responds to local heating, with and without ligand.

The target in assay [1] is T1, DHp-CA^R656A (Xanthomonas campestris pv. campestris, UniProt Q8P9A6, R656A).
T1 sequence (Q8P9A6 464-697 R656A): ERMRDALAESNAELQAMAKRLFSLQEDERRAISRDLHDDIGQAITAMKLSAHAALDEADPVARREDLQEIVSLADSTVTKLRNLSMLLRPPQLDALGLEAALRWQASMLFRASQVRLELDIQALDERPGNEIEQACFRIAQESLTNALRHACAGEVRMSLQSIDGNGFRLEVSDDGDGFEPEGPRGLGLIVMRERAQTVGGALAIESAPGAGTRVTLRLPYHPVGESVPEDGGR
Particulars: compared with DHp-CA protein. As for the experimental part:
(§1) Fig 6 Arg^656 in the CA domain of RavS is a key residue for c-di-GMP binding. (a, b) c-di-GMP binds to the DHp-CA domain of RavS. PAS-A, PAS-B and DHp-CA in (a), and DHp and CA domains of RavS in (b), were purified and the interaction with c-di-GMP was measured by MST. Each assay was repeated three times. Standard deviations are shown. (c) Molecular docking model of the interaction between c-di-GMP and DHp-CA of RavS. c-di-GMP is shown as a ball-and-stick model and DHp-CA is shown in ribbon representation. (d) Schematic view of the predicted docking site between c-di-GMP and DHp-CA. Potential hydrogen bonds are indicated as blue dashed lines. Autodock software was used to predict the interaction. (e) Effect of amino acid substitutions on RavS–c-di-GMP binding. Ten recombinant proteins of the DHp-CA region, each containing a substitution of a putative essential residue involved in c-di-GMP binding, were used in the MST assay to quantify the Kd value of RavS–c-di-GMP binding. fl-c-di-GMP was used in the MST assay. Each experiment was repeated three times. […] The reactions were terminated with 5× SDS loading buffer and the products were separated by 12% SDS-PAGE, exposed to a phosphor screen and analysed by Typhoon FLA7000. […]
(§2) The interaction between c-di-GMP nucleotides and various proteins was measured by using MST with a fluorescein-labelled c-di-GMP (2′-Fluo-AHC-c-di-GMP, abbreviated as fl-c-di-GMP; 2′-Fluo-AHC-c-di-AMP, fl-c-di-AMP; 2′-Fluo-AHC-cGMP, fl-cGMP; Biolog, Germany). These chemicals contain carboxyfluorescein that has excitation and emission wavelengths of 497 nm and 520 nm, respectively, which can be detected directly by a MST instrument. […] Fluorescence intensity due to thermophoresis was recorded using the blue channel optics of the instrument (λex = 470 ± 15 nm, λem = 520 ± 10 nm) during a 30 s period of infrared laser heating at 80% of the maximum laser power, followed by a 5 s cooling period. […]

Assay [2] concerns the target CA domain of RavS (Xanthomonas campestris pv. campestris, UniProt Q8P9A6). Particulars: read-out: dissociation constant (Kd). How it is done: as §1, §2
The target of assay [3] is DHp-CA domain of RavS (Xanthomonas campestris pv. campestris, UniProt Q8P9A6). Particulars: read-out: dissociation constant (Kd). As for the experimental part: as §1, §2

Structures are written as SMILES.

As to `Nc1nc2c(ncn2[C@@H]2O[C@@H]3COP(=O)(O)O[C@H]4[C@@H](O)[C@H](n5cnc6c(=O)[nH]c(N)nc65)O[C@@H]4COP(=O)(O)O[C@H]3[C@H]2O)c(=O)[nH]1` [c-di-GMP, Cyclic di-GMP], the “fold decrease in binding affinity” value in assay [1] is recorded as 10 fold.

One may read the Kd as a measure of binding affinity in units of concentration. For the compound `Nc1nc2c(ncn2[C@@H]2O[C@@H]3COP(=O)(O)O[C@H]4[C@@H](OC(=O)NCCCCCCNC(=O)c5ccc6c(c5)C(=O)OC65c6ccc(O)cc6Oc6cc(O)ccc65)[C@H](n5cnc6c(=O)[nH]c(N)nc65)O[C@@H]4COP(=O)(O)O[C@H]3[C@H]2O)c(=O)[nH]1` [fl-c-di-GMP, 2′-Fluo-AHC-c-di-GMP], the results for the Kd in assay [2] and in assay [3] were 17.1 ± 3.78 µM and 6.25 ± 0.8 µM, respectively.
